In brackets after ≈: the same amount, converted by molar mass. Activity calls are given as the source filed them. No cut-off for these calls is given here.

Assay [1] concerns Rattus norvegicus. The experiment in a line: Wound healing activity in Wistar albino rat dorsal back incision wound model assessed as tensile strength applied topically as cream base ointment over 100/500 mm'2 scar by tensiometry. Format: functional.
Assay [2] relates to Rattus norvegicus. As to the kind of experiment: Wound healing activity in Wistar albino rat dorsal back excision wound model assessed as wound closure applied topically as 1 %W/W gel base ointment measured after 12 days. Format: functional, organism-based.
The subject of assay [3] is Rattus norvegicus. As to the kind of experiment: Wound healing activity in Wistar albino rat dorsal back excision wound model assessed as wound closure applied topically as 1 %W/W gel base ointment measured after 16 days. The assay is classed as functional.
The subject of assay [4] is Rattus norvegicus. The experiment in a line: Wound healing activity in Wistar albino rat dorsal back excision wound model assessed as epithelization period applied topically as cream base ointment over 100/500mm'2 scar. Format: functional.
Assay [5] has as its system Rattus norvegicus. The experiment in a line: Wound healing activity in Wistar albino rat dorsal back excision wound model assessed as wound closure applied topically as 1 %W/W gel base ointment measured after 4 days. The assay is classed as functional.
The test system of assay [6] is Rattus norvegicus. As to the kind of experiment: Wound healing activity in Wistar albino rat dorsal back excision wound model assessed as wound closure applied topically as 1 %W/W gel base ointment measured after 8 days. Format: functional.
Assay [7] concerns Radical scavenging activity. As to the kind of experiment: Antioxidant activity assessed as DPPH radical scavenging activity. The assay is classed as functional.
Assay [8] can be described thus: Antioxidant activity assessed as inhibition of phenazine methosulphate-NADH coupling reaction-induced superoxide anion production at 60 ug/ml. Also on record: scale not given: the % may be the effect or the level left. The assay is classed as functional.
The nature of assay [9]: Antioxidant activity assessed as hydrogen peroxide scavenging activity at 60 ug/ml by spectrophotometry. Format: functional.
The test system of assay [10] is Staphylococcus aureus. The experiment in a line: Antibacterial activity against Staphylococcus aureus ATCC 29737 after 48 hrs by microdilution method. The assay is classed as functional. Particulars: ATCC 29737, 48 h.
In assay [11] the test system is Klebsiella pneumoniae. The experiment in a line: Antibacterial activity against Klebsiella pneumoniae MTCC 618 after 48 hrs by microdilution method. The assay is classed as functional. As to conditions: MTCC 618, 48 h.
Assay [12] has as its system Staphylococcus aureus. The experiment in a line: microbe, parasite or virus in culture. Particulars: ATCC 29737, 48 h, read-out: DIZ.
Description: Antibacterial activity against Staphylococcus aureus ATCC 29737 at 10 ug/ml after 48 hrs by agar well diffusion method
The test system of assay [13] is Bacillus subtilis. The experiment in a line: microbe, parasite or virus in culture. As to conditions: NCIM 2010, 48 h, read-out: DIZ.
Description: Antibacterial activity against Bacillus subtilis NCIM 2010 at 10 ug/ml after 48 hrs by agar well diffusion method
The test system of assay [14] is Pseudomonas aeruginosa. As to the kind of experiment: microbe, parasite or virus in culture. As to conditions: ATCC 20852, 48 h, read-out: DIZ.
Description: Antibacterial activity against Pseudomonas aeruginosa ATCC 20852 at 10 ug/ml after 48 hrs by agar well diffusion method
For assay [15], the system named is Streptococcus pyogenes. As to the kind of experiment: microbe, parasite or virus in culture. Particulars: NCIM 2608, 48 h, read-out: DIZ.
Description: Antibacterial activity against Streptococcus pyogenes NCIM 2608 at 10 ug/ml after 48 hrs by agar well diffusion method
Assay [16] relates to Bacillus subtilis. The experiment in a line: Antibacterial activity against Bacillus subtilis NCIM 2010 by microdilution method. Format: functional.
Assay [17] deals with Klebsiella pneumoniae. The experiment in a line: microbe, parasite or virus in culture. As to conditions: MTCC 618, 48 h, read-out: DIZ.
Description: Antibacterial activity against Klebsiella pneumoniae MTCC 618 at 10 ug/ml after 48 hrs by agar well diffusion method
The subject of assay [18] is Escherichia coli. The experiment in a line: Antibacterial activity against Escherichia coli after 48 hrs by microdilution method. Format: functional.
For assay [19], the system named is Escherichia coli. As to the kind of experiment: Antibacterial activity against Escherichia coli at 10 ug/ml after 48 hrs by agar well diffusion method. Particulars: read-out: DIZ.
The test system of assay [20] is Streptococcus pyogenes. As to the kind of experiment: Antibacterial activity against Streptococcus pyogenes NCIM 2608 after 48 hrs by microdilution method. Format: functional. As to conditions: NCIM 2608, 48 h.
For assay [21], the system named is Nucleic Acid. The experiment in a line: Intrinsic binding affinity to DNA assessed as hypochromism by absorption spectral analysis. The assay is classed as nucleic-acid assay.
In assay [22] the test system is Escherichia coli. The experiment in a line: Antibacterial activity against Escherichia coli at 10 mg/ml after 48 hrs by agar well diffusion method. Format: functional. As to conditions: read-out: DIZ.
Assay [23] concerns Streptococcus pyogenes. As to the kind of experiment: Antibacterial activity against Streptococcus pyogenes NCIM 2608 at 10 mg/ml after 48 hrs by agar well diffusion method. Format: functional. Particulars: NCIM 2608, 48 h, read-out: DIZ.
The subject of assay [24] is Klebsiella pneumoniae. As to the kind of experiment: Antibacterial activity against Klebsiella pneumoniae MTCC 618 at 10 mg/ml after 48 hrs by agar well diffusion method. As to conditions: MTCC 618, 48 h, read-out: DIZ. Format: functional.
Assay [25] has as its system Rattus norvegicus. The experiment in a line: Wound healing activity in Wistar albino rat dorsal back excision wound model assessed as wound closure applied topically as cream base ointment over 100/500 mm'2 scar measured after 16 days. The assay is classed as functional.
The subject of assay [26] is Rattus norvegicus. As to the kind of experiment: Wound healing activity in Wistar albino rat dorsal back excision wound model assessed as wound closure applied topically as cream base ointment over 100/500 mm'2 scar measured after 8 days. The assay is classed as functional.
Assay [27] has as its system Calf thymus DNA. As to the kind of experiment: Binding affinity to calf thymus DNA assessed as melting temperature. Format: nucleic-acid assay. Particulars: Bos taurus.
Assay [28] relates to Calf thymus DNA. The experiment in a line: Binding affinity to calf thymus DNA assessed as increase in viscosity at 100 uM. The assay is classed as nucleic-acid assay. Particulars: Bos taurus.
For assay [29], the system named is Rattus norvegicus. The experiment in a line: Wound healing activity in Wistar albino rat dorsal back excision wound model assessed as wound closure applied topically as cream base ointment over 100/500 mm'2 scar measured after 4 days. Format: functional.
Assay [30] relates to Nucleic Acid. The experiment in a line: Intrinsic binding affinity to DNA by absorption spectral analysis. Format: nucleic-acid assay.
Assay [31] has as its system Pseudomonas aeruginosa. The experiment in a line: Antibacterial activity against Pseudomonas aeruginosa ATCC 20852 at 10 mg/ml after 48 hrs by agar well diffusion method. The assay is classed as functional. As to conditions: ATCC 20852, 48 h, read-out: DIZ.
Assay [32] can be described thus: Antioxidant activity assessed as increase in reducing power at 20 to 60 ug/mL. The assay is classed as functional.
The test system of assay [33] is Rattus norvegicus. The experiment in a line: Wound healing activity in Wistar albino rat dorsal back excision wound model assessed as wound closure applied topically as cream base ointment over 100/500 mm'2 scar measured after 12 days. The assay is classed as functional.
In assay [34] the test system is Pseudomonas aeruginosa. The experiment in a line: Antibacterial activity against Pseudomonas aeruginosa ATCC 20852 after 48 hrs by microdilution method. The assay is classed as functional. As to conditions: ATCC 20852, 48 h.
Assay [35] has as its system Staphylococcus aureus. As to the kind of experiment: Antibacterial activity against Staphylococcus aureus ATCC 29737 at 10 mg/ml after 48 hrs by agar well diffusion method. Format: functional. As to conditions: ATCC 29737, 48 h, read-out: DIZ.
The nature of assay [36]: Antioxidant activity assessed as hydrogen peroxide scavenging activity by spectrophotometry. Format: functional.
The subject of assay [37] is Nucleic Acid. The experiment in a line: Binding affinity to DNA assessed as reduction of Uv-vis spectra absorption at 312 nm wavelength at 0.5 uM by DNA intercalation assay. The assay is classed as nucleic-acid assay. Also on record: scale not given: the % may be the effect or the level left.
Assay [38] deals with Bacillus subtilis. As to the kind of experiment: Antibacterial activity against Bacillus subtilis NCIM 2010 at 10 mg/ml after 48 hrs by agar well diffusion method. Format: functional. Particulars: NCIM 2010, 48 h, read-out: DIZ.
For assay [39], the system named is Rattus norvegicus. As to the kind of experiment: Wound healing activity in Wistar albino rat dorsal back excision wound model applied topically as 1 %W/W gel base ointment measured after 18 days. The assay is classed as functional.
Assay [40] concerns Rattus norvegicus. The experiment in a line: Wound healing activity in Wistar albino rat dorsal back excision wound model applied topically as cream base ointment over 100/500 mm'2 scar measured after 18 days. The assay is classed as functional.
In assay [41] the test system is Nucleic Acid. The experiment in a line: Binding affinity to DNA assessed as reduction of Uv-vis spectra absorption at 293 nm wavelength at 0.5 uM by DNA intercalation assay. More on the design: scale not given: the % may be the effect or the level left. The assay is classed as nucleic-acid assay.

In the case of `NC(=O)N/N=C/c1ccc([N+](=O)[O-])o1` [NITROFURAZONE], the Activity in assay [1] was 599 g; in assay [2], 97.68%; in [3] it was 100%; in assay [4] it was 14 days; in [5], 55.68%; in [6], 87.21%.
Consider `COc1ccc(O)c(C(C)(C)C)c1.COc1ccc(O)cc1C(C)(C)C`, for which the Activity in assay [7] worked out at 64%; in [8], 81%. In addition, the outcome in [9] was Active.
As for `O=C(O)c1cn(C2CC2)c2cc(N3CCNCC3)c(F)cc2c1=O` [CIPROFLOXACIN], the minimal inhibitory concentration (MIC) worked out at 6.75 µg/mL (≈ 20.4 µM) in assay [10]; 12.5 µg/mL (≈ 37.7 µM) in assay [11]; 12.5 µg/mL (≈ 37.7 µM) in assay [16]; 6.5 µg/mL (≈ 19.6 µM) in assay [18]; 6.25 µg/mL (≈ 18.9 µM) in assay [20]. For the same compound, the zone of inhibition at 10 µg/mL in assay [12] was 21.4 mm; in assay [13], 21.3 mm; in assay [14] it was 23.3 mm; in [15] it was 20.8 mm; in assay [17], 20.1 mm; in assay [19] it was 19.2 mm.
In the case of `Cc1cc(C(C)(C)C)c(O)c(C(C)(C)C)c1`, the figures for the Activity in [7] and in assay [8] were 48% and 51%, respectively. Also, the result in assay [9] was Active.
For the compound `O=Cc1cc2ccc3ccccc3c2nc1[SeH]`, the Activity in [1] amounted to 582.33 g; in assay [21], 25.1%; in assay [7], 61%; in assay [8] it was 76%; in assay [25] it was 100%; in assay [26], 85.26%. Further, the Activity in assay [4] was 16 days; in [29], 53.65%; in [33], 95.7%; in [36] it was “Dose-dependent effect”; in assay [37], 18.2%; in assay [9], 74%. Besides, the minimum inhibitory concentration (MIC) came to 8 µg/mL (≈ 28 µM) in assay [10]; 25 µg/mL (≈ 87.4 µM) in assay [11]; 16.2 µg/mL (≈ 56.8 µM) in assay [16]; 25 µg/mL (≈ 87.4 µM) in assay [18]; 16 µg/mL (≈ 55.9 µM) in [34]; 12.5 µg/mL (≈ 43.7 µM) in [20]. For the same compound, the zone of inhibition at 10000 µg/mL in assay [22] worked out at 17.2 mm; in assay [23], 19.5 mm; in assay [24] it was 14.5 mm; in assay [31], 12.2 mm; in [35] it was 22.8 mm; in assay [38], 20.6 mm. For the same compound, in assay [27], the Tm stood at 58 °C. Also, the outcome in assay [28] and in [32] was Active. The compound further came in with a Kb in assay [30] of 3.8 ×10⁶ /M.
Turning to `O=Cc1cc2ccc3ccccc3c2nc1S`, the Activity is 544.83 g in [1]; 20.5% in [21]; 95.71% in [39]; 55% in assay [7]; 65% in assay [8]; 100% in assay [40]. Besides, the Activity was 96.24% in assay [25]; 75.63% in [26]; 18 days in assay [4]; 45.35% in assay [29]; 85.94% in assay [33]; “Dose-dependent effect” in assay [36]. In addition, the Activity in [9] turned out to be 68%; in assay [41], 20.3%. Moreover, the minimum inhibitory concentration (MIC) was found to be 11 µg/mL (≈ 46 µM) in [10]; 12.5 µg/mL (≈ 52.2 µM) in assay [11]; 16.2 µg/mL (≈ 67.9 µM) in assay [16]; 32 µg/mL (≈ 134 µM) in assay [18]; 16 µg/mL (≈ 66.9 µM) in [34]; 12.5 µg/mL (≈ 52.2 µM) in assay [20]. The zone of inhibition at 10000 µg/mL in assay [22] came to 12.3 mm; in assay [23], 17.4 mm; in [24] it was 13.6 mm; in assay [31], 11.6 mm; in assay [35], 19.4 mm; in assay [38], 15.2 mm. Further, the Tm in assay [27] turned out to be 60 °C. For the same compound, the outcome in assay [28] and in [32] was Active. The Kb in assay [30] was determined as 2.7 ×10⁵ /M.

For the origin of these results see ChEMBL document CHEMBL1138566, “Synthesis of novel benzo[h]quinolines: wound healing, antibacterial, DNA binding and in vitro antioxidant activity” (Eur J Med Chem, 2009).
